Tests used:
[1] = Cell viability assay in macrophage RAW264.7 cells (MTT); format: cell-based; conditions: mouse, read-out: % cell viability ± SD; for viability at 24 h, 5 µM: RAW264.7, 5 μM; for viability at 24 h, 10 µM: RAW264.7, 10 μM
Procedure: RAW264.7 cells were seeded in 96-well cell culture plates at a density of 1×10^4 cells per well and incubated overnight at 37° C. with 5% CO2. Next day, the cells were treated with CBD or its derivatives at 5 μM and/or 10 μM concentration for 24 hrs. The MTT dye (2.5 mg/ml, 20 μL) was added to each well 4 hrs before termination (Molecules. 2022, 27, 8068). After 4 hrs of incubation with MTT, the supernatant was discarded, and the formazan crystals were dissolved by adding 100 μL DMSO. The absorbance was recorded at 540 nm on microplate reader (Tecan Infinite Pro).

[2] = tested on: nitric oxide (NO) production in RAW264.7 macrophages; assay: In vitro anti-inflammatory activity: nitric oxide production (Griess) in LPS-exposed RAW264.7 macrophages; format: cell-based, mouse; conditions: for inhibition at 5 µM / inhibition at 10 µM: Mus musculus, RAW264.7, read-out: % NO Inhibition ± SD; for inhibition at 5 µM / inhibition at 10 µM / % NO inhibition: LPS 24 hrs; for % NO inhibition: concentration not given
Procedure: Measurement of Nitric oxide: RAW264.7 macrophages were seeded in 96-well plates with a density of 0.5×10^5 cells/well and incubated overnight at 37° C. in a 5% CO2 atmosphere. The cells were treated with different concentration of CBD and its analogues and exposed to LPS for 24 hrs. For nitric oxide (NO) determination, the cell culture supernatant was taken and mixed with equal volume of Griess reagent in another 96 well plate at room temperature (Biomed Pharmacother., 2017, 92, 175-186). The absorbance was measured at 540 nm. The final calculations were determined on a NaNO2 standard curve.

[3] = Cell viability assay in differentiated neuronal cells (MTT), N2A; format: cell-based; conditions: mouse, read-out: % Cell viability ± SD, N2A
Description: (§1) In the present disclosure outlined herein, a focused library of cannabidiol analogues were studied for possible neuro-protective potential employing cell line-based stress model systems which mimic the biological stress conditions in vitro (J Cell Biochem., 2018, 119(8), 6482-6491).
(§2) Human neuroblastoma cells (SHSY5Y) and mouse neuroblastoma cells (N2A) were procured from American Type Culture Collection (ATCC). SHSY5Y cell cultures were maintained in DMEM F12 (Invitrogen) whereas N2A were cultured in DMEM (Invitrogen) with 10% Fetal Bovine Serum (Gibco) medium, subjected to differentiation to acquire neuronal morphology (employing differentiation media DMEM-F12, 3-5% FBS, (For differentiation, low concentration of FBS was used) and 50 μM retinoic acid). Differentiated cells were later seeded into 96 well plates, at a density of 1×10^4 before being incubated for 48 hrs with the synthesized library. The exhausted culture media was substituted with new culture media containing 0.5 mg/ml MTT dye. Eventually, the OD at 490 nm excitation was measured using a 96-well plate reader. The proportion of viable cells was determined as percentage of absorbance of untreated cultures relative to control.

[4] = Cell viability assay in differentiated neuronal cells (MTT), SHSY5Y; format: cell-based; conditions: human, read-out: % Cell viability ± SD, SHSY5Y
Description: as §1, §2

[5] = tested on: differentiated SHSY5Y cell cultures; assay: Neuroprotective potential in differentiated SHSY5Y after 96 hrs, concentration series with and without corticosterone; format: cell-based, human; conditions: DHF 5 nM + Cort 400 μM, 96 hrs
Description: Furthermore, A1 intervention in presence of corticosterone evidenced neuroprotective effect against corticosterone induced impairment and cell death.

[6] = tested on: differentiated SHSY5Y cell cultures; assay: as above; format: cell-based, human; conditions: DHF 5 nM, without Cort, 96 hrs
p-AKT 473 = assay: Survival pathway protein expression by western blotting in SHSY5Y; format: cell-based, human; conditions: 6 hrs
Procedure: (§3) Here, A1 was tested to find its role in eliciting survival pathway proteins in differentiated human neuroblastoma cells in concentration and time dependent manner.
To investigate the effect of A1 on the survival proteins, […] of survival proteins, including p-Erk 44/42, p-AKT 473, Anti BDNF, and p TrkB 816 and p TrKB 515 by western blotting.

p TrkB 816 [7] = assay: as above; format: cell-based, human; conditions: DHF/Cort., 6 hrs
p TrkB 515 [8] = assay: as above; format: cell-based, human; conditions: DHF/Cort., 6 hrs
p TrkB 515 [9] = assay: as above; format: cell-based, human; conditions: DHF 5 nM, 6 hrs
Procedure: as §3
(§4) To investigate the effect of A1 on the survival proteins, SHSY5Y cell cultures were treated with different concentrations for 6 hrs and analyzed for the expression of survival proteins, including p-Erk 44/42, p-AKT 473, Anti BDNF, and p TrkB 816 and p TrKB 515 by western blotting.

p-Erk 44/42 = assay: as above; format: cell-based, human; conditions: 6 hrs
Procedure: as §3, §4

Anti BDNF = assay: as above; format: cell-based, human; conditions: 6 hrs
Procedure: as §3, §4

p TrkB 816 [10] = assay: as above; format: cell-based, human; conditions: DHF 5 nM, 6 hrs
Procedure: as §3, §4

Row | Compound | viability at 24 h, 5 µM [1] | viability at 24 h, 10 µM [1] | inhibition at 5 µM [2] | inhibition at 10 µM [2] | viability at 48 h, 20 µM [3] | viability at 48 h, 20 µM [4] | also measured
1 | C=C(C)[C@@H]1CCC(C)=C[C@H]1c1c(O)c(CN2CCOCC2)c(CCCCC)c(CN2CCOCC2)c1O [A1′, 2′,4′-{bis-(morpholin-1-ylmethyl)}-cannabidiol] | 94.4 ± 0.9% | 92.4 ± 1.2% | 15.6 ± 2.5% | 23.4 ± 3.8% | 94.7 ± 1.86% | 93.6 ± 2.01% | % NO inhibition [2]: greater than 20%
2 | C=C(C)[C@@H]1CCC(C)=C[C@H]1c1c(O)cc(CCCCC)c(CN2CCCCC2)c1O [A2, 2′-(piperidin-1-ylmethyl)-cannabidiol] | 65.9 ± 6.5% | 61.7 ± 8.1% |  |  | 96.9 ± 3.77% | 95.8 ± 1.1% | 
3 | C=C(C)[C@@H]1CCC(C)=C[C@H]1c1c(O)cc(CCCCC)c(CN2CCC(C(C)C)CC2)c1O [A3, 2′-{(4-isopropylpiperidin-1-yl)methyl}-cannabidiol] | 92.8 ± 0.9% | 89.9 ± 1.2% | 4.9 ± 1.4% | 10.7 ± 2.1% | 99.7 ± 0.42% | 103 ± 2.25% | 
4 | C=C(C)[C@@H]1CCC(C)=C[C@H]1c1c(O)cc(CCCCC)c(CN2CCC(O)CC2)c1O [A4, 2′-{(4-hydroxypiperidin-1-yl)methyl}-cannabidiol] | 93.8 ± 1.14% | 90.6 ± 0.7% | 11.4 ± 2.9% | 20.8 ± 2.5% | 97.71 ± 0.81% | 97.28 ± 0.54% | % NO inhibition [2]: greater than 20%
5 | C=C(C)[C@@H]1CCC(C)=C[C@H]1c1c(O)cc(CCCCC)c(CN2CCC(c3ccccc3)CC2)c1O [A5, 2′-{(4-phenylpiperidin-1-yl)methyl}-cannabidiol] | 94.4 ± 1.3% | 90.4 ± 0.9% | 5.8 ± 2.4% | 12.3 ± 3.1% | 90.6 ± 1.85% | 94.5 ± 1.12% | 
6 | C=C(C)[C@@H]1CCC(C)=C[C@H]1c1c(O)cc(CCCCC)c(CN2CCC(C(F)(F)F)CC2)c1O [A6, 2′-[{4-(trifluoromethyl)piperidin-1-yl}methyl]-cannabidiol] | 94.1 ± 1.8% | 92 ± 1.1% | 7.6 ± 3% | 11.8 ± 1.9% | 25.3 ± 1.47% | 27 ± 2.02% | 
7 | C=C(C)[C@@H]1CCC(C)=C[C@H]1c1c(O)cc(CCCCC)c(CN2CCC(Cc3ccccc3)CC2)c1O [A7, 2′-{(4-benzylpiperidin-1-yl)methyl}-cannabidiol] | 90.1 ± 1.3% | 93 ± 1.7% | 8.4 ± 3.1% | 16 ± 1.2% | 101.7 ± 0.47% | 102 ± 1.57% | 
8 | C=C(C)[C@@H]1CCC(C)=C[C@H]1c1c(O)cc(CCCCC)c(CN2CCN(C)CC2)c1O [A8, 2′-{(4-methylpiperazin-1-yl)methyl}-cannabidiol] | 94.7 ± 2.7% | 87.1 ± 1.9% | 10.7 ± 2.3% | 19.6 ± 3.2% | 93.3 ± 0.39% | 89.4 ± 1.7% | 
9 | C=C(C)[C@@H]1CCC(C)=C[C@H]1c1c(O)cc(CCCCC)c(CN2CCN(CC)CC2)c1O [A9, 2′-{(4-ethylpiperazin-1-yl)methyl}-cannabidiol] | 94.2 ± 2.1% | 87.6 ± 0.1% | 14.6 ± 3.3% | 27.9 ± 0.4% | 94.3 ± 1.3% | 91.67 ± 0.56% | % NO inhibition [2]: more than 25%
10 | C=C(C)[C@@H]1CCC(C)=C[C@H]1c1c(O)cc(CCCCC)c(CN2CCN(CCO)CC2)c1O [A10, 2′-[{4-(2-hydroxyethyl)piperazin-1-yl}methyl]-cannabidiol] | 97.5 ± 1.7% | 95 ± 2.6% | 48.9% | 68.3% | 96 ± 2.17% | 98.1 ± 2.25% | 
11 | C=C(C)[C@@H]1CCC(C)=C[C@H]1c1c(O)cc(CCCCC)c(CN2CCN(C(C)=O)CC2)c1O [A11, 2′-[{4-(piperazin-1-yl)ethan-1-one}methyl]-cannabidiol] | 93.3 ± 0.4% | 91.6 ± 0.2% | 15.6 ± 1.7% | 31.4 ± 3.6% | 102 ± 1.53% | 101 ± 3.48% | % NO inhibition [2]: more than 25%
12 | C=C(C)[C@@H]1CCC(C)=C[C@H]1c1c(O)cc(CCCCC)c(CN2CCN(c3ccccc3)CC2)c1O [A12, 2′-{(4-phenylpiperazin-1-yl)methyl}-cannabidiol] | 94.5 ± 1% | 92.7 ± 0.5% | 8.6 ± 0.93% | 11.4 ± 3.5% | 96.2 ± 2.32% | 95.9 ± 3.39% | 
13 | C=C(C)[C@@H]1CCC(C)=C[C@H]1c1c(O)cc(CCCCC)c(CN2CCN(C3CC3)CC2)c1O [A13, 2′-{(4-cyclopropylpiperazin-1-yl)methyl}-cannabidiol] | 89.3 ± 2% | 93.9 ± 4.3% | 12 ± 1.7% | 27.3 ± 2.6% | 97.2 ± 3.51% | 96.2 ± 4.87% | % NO inhibition [2]: more than 25%
14 | C=C(C)[C@@H]1CCC(C)=C[C@H]1c1c(O)cc(CCCCC)c(CN2CCN(c3ccc(Cl)cc3)CC2)c1O [A14, 2′-[{4-(4-chlorophenyl)piperazine}methyl]-cannabidiol] | 95.2 ± 0.7% | 89.8 ± 1.1% | 8.5 ± 1.7% | 14.2 ± 3.8% | 95.9 ± 4.04% | 90.5 ± 0.14% | 
15 | C=C(C)[C@@H]1CCC(C)=C[C@H]1c1c(O)cc(CCCCC)c(CN2CCN(c3ncccn3)CC2)c1O [A15, 2′-[{4-(pyrimidin-2-yl)piperazin-1-yl}methyl]-cannabidiol] | 93.4 ± 1.1% | 89.9 ± 0.9% | 4.8 ± 0.02% | 14.5 ± 0.6% | 85.2 ± 1.25% | 81.8 ± 1.17% | 
16 | C=C(C)[C@@H]1CCC(C)=C[C@H]1c1c(O)cc(CCCCC)c(CNc2cnccn2)c1O [A16, 2′-{(pyrazin-2-ylamino)methyl}-cannabidiol] | 93.6 ± 1.3% | 87.7 ± 0.8% | 11.5 ± 1.2% | 18.3 ± 1% | 89.85 ± 0.03% | 86.97 ± 0.12% | 
17 | O=c1cc(-c2ccccc2)oc2c(O)c(O)ccc12 [DHF, reference compound] |  |  |  |  |  |  | Cell viability [5]: 104.3; Cell viability [6]: 113.7; Relative Protein Expression PAKT 473 (p-AKT 473; DHF 5 nM): 1.42; Relative Protein Expression PAKT 473 (p-AKT 473; DHF/Cort.): 0.96; Relative Protein Expression p TrkB 816 (p TrkB 816 [7]): 0.71; Relative Protein Expression p TrkB 515 (p TrkB 515 [8]): 2.11; Relative Protein Expression p TrkB 515 (p TrkB 515 [9]): 2.43; Relative Protein Expression p ERK 44/42 (p-Erk 44/42; DHF 5 nM): 5.28; Relative Protein Expression p ERK 44/42 (p-Erk 44/42; DHF/Cort.): 5.00; Relative Protein Expression Anti BDNF (Anti BDNF; DHF 5 nM): 1.03; Relative Protein Expression Anti BDNF (Anti BDNF; DHF/Cort.): 0.53; Relative Protein Expression p TrkB 816 (p TrkB 816 [10]): 1.55
18 | Lipopolysaccharide [LPS, reference compound] |  |  |  |  |  |  | % NO Inhibition ± SD ([2]; LPS alone 1 μg/ml (0% reference)): 0%

Reference: US20260315499A1, “2'- {HETEROCYCLYL (ARYL/ALKYL) METHYL} - CANNABIDIOL COMPOUNDS AND PROCESS FOR PREPARATION THEREOF” (COUNCIL OF SCIENTIFIC & INDUSTRIAL RESEARCH, priority 2023, published 2026)
